Results from patent publication US7115608B2, “Pyridinone and pyridinethione derivatives having HIV inhibiting properties” (Centre National de la Recherche Schentifique, priority 2000, dated 2006).

How the values were obtained:
[1] = Cytotoxicity in mock-infected MT-4 cells (MTT); assay type: cell-based; conditions: human, mock-infected MT-4 cells, concentration reducing absorbance of mock-infected MT-4 control by 50%
[2] = test system: HIV-1; conditions: selectivity index, ratio of CC50 to IC50
Protocol: (§1) A rapid, sensitive and automated assay procedure was used for the in vitro evaluation of anti-HIV agents. […] Inhibition of the HIV-induced cytopathic effect was used as the end point. The viability of both HIV- and mock-infected cells was assessed spectrophotometrically via the in situ reduction of 3-(4,5-dimethylthiazol-2-yl)-2,5-diphenyltetrazolium bromide (MTT). […] The percent protection achieved by the compound in HIV-infected cells was calculated by the following formula:
(§2) [formula] expressed in %, whereby (ODT)HIV is the optical density measured with a given concentration of the test compound in HIV-infected cells; (ODC)HIV is the optical density measured for the control untreated HIV-infected cells; (ODC)MOCK is the optical density measured for the control untreated mock-infected cells; all optical density values were determined at 540 nm. […] The ratio of CC50 to IC50 was defined as the selectivity index (SI).

[3] = test system: HIV-1; assay: microbe, parasite or virus in culture; conditions: Human immunodeficiency virus 1, MT4
Protocol: as §1, §2

SMILES: CCOCc1c(C)[nH]c(=O)c(I)c1Oc1cc(C)cc(C)c1 [compound 255, 4-(3,5-dimethylphenoxy)-5-(ethoxymethyl)-3-iodo-6-methyl-2(1H)-pyridinone]
- CC50 [1]: > 10000 nM
- melting point: 234 to 236 °C
- SI [2]: >15849
- IC50 [3]: 0.6 nM
